Measurements published in patent US6127543A, “Antimalarial organometallic iron complexes” (Universite des Sciences et Technologies de Lille, priority 1995, dated 2000).
pIC50: −log10 of the molar value. Converted amounts (≈) assume the structure as drawn. Read-outs that look alike come from different tables or passages of the source.

Experiments:
[1] = test system: field strains (Francevilloises strains); assay: In vitro inhibition of parasite proliferation (3[H] hypoxanthine incorporation), field strains; type: cell-based, Plasmodium falciparum
Procedure: As mentioned above, the in vitro activity of organometallic complexes of the invention was measured on field strains.
(§1) The proliferation of the parasites is measured by incorporation of ^3 [H] hypoxanthine applied to the cultures 16 hours before the end of the culture. The radioactive hypoxanthine is absorbed by the developing parasites. The quantity absorbed is measured by a Beta counter in counts per minute.

P. berghei, N strain = assay: In vivo test in mice infected with P. berghei, N strain; settings: for Mortality: female SWISS mice, 4 subcutaneous injections D0-D2
Procedure: Methodology: the laboratory mice can be infected with various strains of rodent Plasmodium. Female SWISS mice (about 30 g) (5 per group) were inoculated on D0 with […] P. berghei parasites, chloroquinine-sensitive, lethal strain. The mice were treated between D0 and D2 using 4 subcutaneous injections of chloroquinine or of compound SN1, with a total dose of 1 or 10 mg/kg of weight. The parasitemia and mortality were monitored from D3, for at least 40 days.
The compound SN1 and its salt, SN1 ditartrate, were tested.

[2] = test system: P. falciparum line FCM 17 (chloroquinine-resistant); assay: microbe, parasite or virus in culture; type: cell-based; settings: Plasmodium falciparum, FCM17, chloroquinine-resistant; two experiments, one line each
Procedure: as §1
(§2) Three P. faciparum lines M25, chloroquinine-sensitive, and FCM 6 and FCM 17, chloroquinine-resistant, were cultured at a parasitemia rate approaching 1%, at the trophozoite stage, for a period of 48 hours.

[3] = test system: P. falciparum line FCM 6 (chloroquinine-resistant); assay: microbe, parasite or virus in culture; type: cell-based; settings: Plasmodium falciparum, FCM6, chloroquinine-resistant; two experiments, one line each
Procedure: as §1, §2

[4] = test system: P. falciparum line M25 (chloroquinine-sensitive); assay: In vitro activity on established line M25 (48 h culture); type: cell-based; settings: Plasmodium falciparum, two experiments, one line each
Procedure: as §1, §2

P. yoelii, strain NS = assay: In vivo test in mice infected with chloroquinine-resistant P. yoelii, strain NS; settings: 10 mg/kg

Q: `CN(C)Cc1ccc[c-]1CNc1ccnc2cc(Cl)ccc12.[Fe+2].c1cc[cH-]c1` (centres unmarked) [SN1] was tested. Which pIC50 ([1]; Strain No. 17, read-out: IC50) did it give?
A: Its pIC50 is 7.70.

Q: What about the pIC50 ([1]; Strain No. 265, read-out: IC50) of the same molecule?
A: The pIC50 was 6.77.

Q: What about the pIC50 ([1]; Strain No. 309, read-out: IC50) of the same molecule?
A: The pIC50 was 6.96.

Q: What about the pIC50 ([1]; Strain No. 823, read-out: IC50) of the same molecule?
A: The pIC50 was 6.92.

Q: And the pIC50 ([1]; Strain No. 917, read-out: IC50)?
A: Its pIC50 is 8.00.

Q: And the pIC50 ([1]; Strain No. 926, read-out: IC50)?
A: Its pIC50 is 6.64.

Q: And the pIC50 ([1]; Strain No. 935, read-out: IC50)?
A: The pIC50 was 6.92.

Q: And the “action on the sole chloroquinine-resistant strain tested so far” value ([1]; in words, in vitro)?
A: Its value is “marked action”.

Q: What about the “action on the inhibition of parasitemia” value ([1]; in words, in vitro, compared with quinine) of the same molecule?
A: Its value is “greater action on the inhibition of parasitemia than quinine”.

Q: What about the Mortality (P. berghei, N strain; Exp 1, total dose 1 mg/kg) of the same molecule?
A: Its Mortality is 5/5.

Q: And the Mortality (P. berghei, N strain; Exp 1, total dose 10 mg/kg)?
A: The Mortality was 1/5.

Q: What about the Mortality (P. berghei, N strain; Exp 2, total dose 1 mg/kg) of the same molecule?
A: Its Mortality is 5/5.

Q: And the Mortality (P. berghei, N strain; Exp 2, total dose 10 mg/kg)?
A: The Mortality was 0/5.

Q: What about the “in vivo activity compared with chloroquinine” value (P. berghei, N strain; in words, mice, P. berghei) of the same molecule?
A: The value was “better activity than chloroquinine in vivo”.

Q: Which results are given for `CCN(CC)CCCC(C)Nc1ccnc2cc(Cl)ccc12` (centres unmarked) [Chloroquinine]?
A: pIC50 ([1]; Plasmodium falciparum, Strain No. 17): 6.70; pIC50 ([1]; Plasmodium falciparum, Strain No. 265): < 6.00; pIC50 ([1]; Plasmodium falciparum, Strain No. 309): 6.01; pIC50 ([1]; Plasmodium falciparum, Strain No. 823): < 6.00; pIC50 ([1]; Plasmodium falciparum, Strain No. 917): 6.72; pIC50 ([1]; Plasmodium falciparum, Strain No. 926): < 6.00; pIC50 ([1]; Plasmodium falciparum, Strain No. 935): < 6.00; pIC50 ([1]; Plasmodium falciparum, read-out: IC50 (range over strains), Francevilloises strains, 7 strains tested): 6.00 to 6.72; pIC50 ([1]; Plasmodium falciparum, read-out: ID 50, Strain No. 17): 5.70; pIC50 ([1]; Plasmodium falciparum, read-out: ID 50, Strain No. 265): < 5.00; pIC50 ([1]; Plasmodium falciparum, read-out: ID 50, Strain No. 309): 5.01; pIC50 ([1]; Plasmodium falciparum, read-out: ID 50, Strain No. 823): < 5.00; pIC50 ([1]; Plasmodium falciparum, read-out: ID 50, Strain No. 917): 5.72; pIC50 ([1]; Plasmodium falciparum, read-out: ID 50, Strain No. 926): < 5.00; pIC50 ([1]; Plasmodium falciparum, read-out: ID 50, Strain No. 935): < 5.00; chloroquinine-resistance of the strains ([1]; in words, Francevilloises strains): high chloroquinine-resistance; IC50 [2]: 0.555 µg/mL (≈ 1.74 µM); IC50 [3]: 0.492 µg/mL (≈ 1.54 µM); IC50 [4]: 0.069 µg/mL (≈ 0.216 µM); Mortality (P. berghei, N strain; Exp 1, total dose 1 mg/kg): 5/5; Mortality (P. berghei, N strain; Exp 1, total dose 10 mg/kg): 5/5; Mortality (P. berghei, N strain; Exp 2, total dose 1 mg/kg): 5/5; Mortality (P. berghei, N strain; Exp 2, total dose 10 mg/kg): 5/5; parasites detected / parasitemia (P. yoelii, strain NS): high parasitemia
